Measurements: US11814367B2, “Inhibitors of glycogen synthase 1 (GYS1) and methods of use thereof” (Maze Therapeutics, Inc., priority 2021, dated 2023)

Legend:
[1] = biological target: hGYS1 enzyme (recombinant hGYS1/GN1 protein) (Homo sapiens (Human), UniProt P13807); experiment: GYS1 coupled enzyme assay (PK/LDH); type: biochemical; conditions: hGYS1/GN1 50 nM, UDP-Glucose 0.8 mM, G6P 1 mM; geometric mean of at least 2 runs
[2] = system: hGYS1 enzyme / glycogen synthesis in HeLa cells; experiment: GYS1 cell based assay (glycogen synthesis, Glucose-glo); set-up: species or system human; conditions: Homo sapiens, HeLa, 24 h, 24 h incubation, 20 mM glucose, geometric mean of at least 2 runs
Outline: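 HeLa cells starved 24 h in medium containing only 1× Glutamax were plated onto compound in medium with 20 mM glucose (1% DMSO final) for 24 h, 37 °C, 5% CO2. Acid lysates were Tris-quenched, glucoamylase-digested (pH 5.3, 1 h, 37 °C) and read by Glucose-glo luminescence. IC50 came from Hill fits, as geometric mean of ≥2 runs.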

[3] = biological target: hGYS2 enzyme (recombinant hGYS2/GN1 protein) (Homo sapiens (Human), UniProt P54840); experiment: GYS2 coupled enzyme assay (PK/LDH); type: biochemical; conditions: geometric mean of at least 2 assay runs on separate days, read-out: Avg_IC50
Outline: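 hGYS2/GN1 200 nM; UDP-Glc 2 mM; glycogen 0.2%; G6P 2 mM; PEP 2 mM, NADH 0.6 mM, PK/LDH 20 U/mL. 50 mM Tris pH 7.5, MgCl2, KCl, BSA, TCEP, 2.5% DMSO. Kinetic A340, 10 min. IC50 = geomean of ≥2 runs.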

Sequence of hGYS1 enzyme (recombinant hGYS1/GN1 protein) (P13807 whole entry): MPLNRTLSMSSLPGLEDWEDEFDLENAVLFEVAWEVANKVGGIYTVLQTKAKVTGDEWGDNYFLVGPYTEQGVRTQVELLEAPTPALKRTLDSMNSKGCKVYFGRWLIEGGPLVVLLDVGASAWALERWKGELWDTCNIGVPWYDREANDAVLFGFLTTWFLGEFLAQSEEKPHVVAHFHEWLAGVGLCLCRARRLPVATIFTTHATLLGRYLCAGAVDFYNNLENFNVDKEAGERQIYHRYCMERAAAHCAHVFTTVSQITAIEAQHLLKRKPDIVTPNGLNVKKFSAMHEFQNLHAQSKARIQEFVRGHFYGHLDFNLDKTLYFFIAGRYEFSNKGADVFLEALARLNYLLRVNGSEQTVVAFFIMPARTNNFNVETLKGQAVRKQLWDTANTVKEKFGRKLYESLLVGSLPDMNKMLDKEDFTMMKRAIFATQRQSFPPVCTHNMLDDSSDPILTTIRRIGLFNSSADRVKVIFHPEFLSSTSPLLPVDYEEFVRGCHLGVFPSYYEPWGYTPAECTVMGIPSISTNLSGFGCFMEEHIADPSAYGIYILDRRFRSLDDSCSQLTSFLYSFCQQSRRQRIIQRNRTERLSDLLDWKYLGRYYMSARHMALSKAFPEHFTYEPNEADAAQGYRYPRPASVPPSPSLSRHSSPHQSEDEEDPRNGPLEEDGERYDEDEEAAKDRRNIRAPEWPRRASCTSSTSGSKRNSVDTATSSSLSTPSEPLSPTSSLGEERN
Sequence of hGYS1 enzyme (recombinant hGYS1/GN1 protein) (P46976 whole entry partner): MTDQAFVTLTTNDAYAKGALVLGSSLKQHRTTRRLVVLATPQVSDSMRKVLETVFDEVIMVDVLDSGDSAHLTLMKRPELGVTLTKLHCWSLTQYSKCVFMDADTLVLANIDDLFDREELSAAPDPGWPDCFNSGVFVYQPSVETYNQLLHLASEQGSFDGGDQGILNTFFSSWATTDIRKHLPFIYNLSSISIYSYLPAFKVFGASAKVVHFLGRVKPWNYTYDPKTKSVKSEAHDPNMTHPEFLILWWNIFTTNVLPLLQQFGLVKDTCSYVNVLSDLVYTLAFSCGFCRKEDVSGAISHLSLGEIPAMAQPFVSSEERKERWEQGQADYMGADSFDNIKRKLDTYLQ
Sequence of hGYS2 enzyme (recombinant hGYS2/GN1 protein) (P54840 whole entry): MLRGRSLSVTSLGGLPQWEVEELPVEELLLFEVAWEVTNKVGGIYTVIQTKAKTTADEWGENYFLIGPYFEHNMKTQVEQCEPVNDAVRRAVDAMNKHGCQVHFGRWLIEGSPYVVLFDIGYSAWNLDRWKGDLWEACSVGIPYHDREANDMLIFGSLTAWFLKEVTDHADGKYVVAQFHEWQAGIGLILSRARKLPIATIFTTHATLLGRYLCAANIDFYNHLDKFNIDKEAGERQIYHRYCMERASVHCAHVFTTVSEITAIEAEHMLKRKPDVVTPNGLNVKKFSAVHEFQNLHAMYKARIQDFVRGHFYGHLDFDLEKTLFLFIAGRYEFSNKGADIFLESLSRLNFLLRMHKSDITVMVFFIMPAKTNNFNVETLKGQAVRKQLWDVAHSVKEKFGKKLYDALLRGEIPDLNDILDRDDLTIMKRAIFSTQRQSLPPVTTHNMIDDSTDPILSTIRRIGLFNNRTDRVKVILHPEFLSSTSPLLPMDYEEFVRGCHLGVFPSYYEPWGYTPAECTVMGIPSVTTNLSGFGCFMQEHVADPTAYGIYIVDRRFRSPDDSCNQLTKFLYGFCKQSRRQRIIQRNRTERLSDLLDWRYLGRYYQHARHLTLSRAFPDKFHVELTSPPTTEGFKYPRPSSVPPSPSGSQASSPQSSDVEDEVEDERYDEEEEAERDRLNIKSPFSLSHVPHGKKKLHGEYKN
Sequence of hGYS2 enzyme (recombinant hGYS2/GN1 protein) (P46976 whole entry partner): as the sequence (P46976 whole entry partner) above

SMILES	IC50 [1]	IC50 [2]	IC50 [3]
CC(C)c1ccc([C@@H](NC(=O)[C@@H]2C[C@@H](F)CN2C(=O)Cn2ccnc2)c2ccccc2)cc1F [Compound 380, (2S,4R)-4-fluoro-N-[(S)-[3-fluoro-4-(propan-2-yl)phenyl](phenyl)methyl]-1-[2-(1H-imidazol-1-yl)acetyl]pyrrolidine-2-carboxamide]	47 nM	450 nM	> 100000 nM
CC(C)c1ccc([C@@H](NC(=O)[C@@H]2C[C@@H](F)CN2C(=O)[C@@H]2CNC(=O)O2)c2ccccc2)cc1F [Compound 381, (2S,4R)-4-fluoro-N-[(S)-[3-fluoro-4-(propan-2-yl)phenyl](phenyl)methyl]-1-[(5S)-2-oxo-1,3-oxazolidine-5-carbonyl]pyrrolidine-2-carboxamide]	58 nM	440 nM	> 100000 nM
CC(C)c1ccc([C@@H](NC(=O)[C@@H]2C[C@@H](F)CN2C(=O)[C@H]2CNC(=O)O2)c2ccccc2)cc1F [Compound 382, (2S,4R)-4-fluoro-N-[(S)-[3-fluoro-4-(propan-2-yl)phenyl](phenyl)methyl]-1-[(5R)-2-oxo-1,3-oxazolidine-5-carbonyl]pyrrolidine-2-carboxamide]	34 nM	520 nM	> 100000 nM
Cc1ccc2c(CC(=O)N3C[C@H](F)C[C@H]3C(=O)N[C@@H](c3ccccc3)c3ccc(C(C)C)c(F)n3)cccc2n1 [Compound 387, (2S,4R)-4-fluoro-N-[(S)-[6-fluoro-5-(propan-2-yl)pyridin-2-yl](phenyl)methyl]-1-[2-(2-methylquinolin-5-yl)acetyl]pyrrolidine-2-carboxamide]	5 nM	30 nM	36200 nM
CC(C)c1ccc([C@@H](NC(=O)[C@@H]2C[C@@H](F)CN2C(=O)Cc2cccn3c(=O)[nH]nc23)c2ccccc2)nc1F [Compound 391, (2S,4R)-4-fluoro-N-[(S)-[6-fluoro-5-(propan-2-yl)pyridin-2-yl](phenyl)methyl]-1-(2-{3-oxo-2H,3H-[1,2,4]triazolo[4,3-a]pyridin-8-yl}acetyl) pyrrolidine-2-carboxamide]	6 nM	150 nM	89300 nM
CC(C)c1ccc([C@@H](NC(=O)[C@@H]2C[C@@H](F)CN2C(=O)Cn2ncc(N(C)C)n2)c2ccccc2)nc1F [Compound 392, (2S,4R)-1-{2-[4-(dimethylamino)-2H-1,2,3-triazol-2-yl]acetyl}-4-fluoro-N-[(S)-[6-fluoro-5-(propan-2-yl)pyridin-2-yl](phenyl)methyl] pyrrolidine-2-carboxamide]	5 nM	100 nM	> 100000 nM
CC(C)c1ccc([C@@H](NC(=O)[C@@H]2C[C@@H](F)CN2C(=O)Cn2cc(N(C)C)nn2)c2ccccc2)nc1F [Compound 393, (2S,4R)-1-{2-[4-(dimethylamino)-1H-1,2,3-triazol-1-yl]acetyl}-4-fluoro-N-[(S)-[6-fluoro-5-(propan-2-yl)pyridin-2-yl](phenyl)methyl] pyrrolidine-2-carboxamide]	8 nM	120 nM	> 100000 nM
CC(C)c1ccc([C@@H](NC(=O)[C@@H]2C[C@@H](F)CN2C(=O)CNC(=O)N(C)C)c2ccccc2)nc1F [Compound 394, (2S,4R)-1-{2-[(dimethylcarbamoyl)amino]acetyl}-4-fluoro-N-[(S)-[6-fluoro-5-(propan-2-yl)pyridin-2-yl](phenyl)methyl] pyrrolidine-2-carboxamide]	7 nM	150 nM	> 100000 nM
CNC(=O)NCC(=O)N1C[C@H](F)C[C@H]1C(=O)N[C@@H](c1ccccc1)c1ccc(C(C)C)c(F)n1 [Compound 395, (2S,4R)-4-fluoro-N-[(S)-[6-fluoro-5-(propan-2-yl)pyridin-2-yl](phenyl)methyl]-1-{2-[(methylcarbamoyl)amino]acetyl}pyrrolidine-2-carboxamide]	8 nM	240 nM	> 100000 nM
CC(C)c1ccc([C@@H](NC(=O)[C@@H]2C[C@@H](F)CN2C(=O)CNC(N)=O)c2ccccc2)nc1F [Compound 396, (2S,4R)-1-[2-(carbamoylamino)acetyl]-4-fluoro-N-[(S)-[6-fluoro-5-(propan-2-yl)pyridin-2-yl](phenyl)methyl] pyrrolidine-2-carboxamide]	13 nM	330 nM	> 100000 nM
CC(C)c1ccc([C@@H](NC(=O)[C@@H]2C[C@@H](F)CN2C(=O)Cc2n[nH]c(=O)n2C)c2ccccc2)nc1F [Compound 398, (2S,4R)-4-fluoro-N-[(S)-[6-fluoro-5-(propan-2-yl)pyridin-2-yl](phenyl)methyl]-1-[2-(4-methyl-5-oxo-4,5-dihydro-1H-1,2,4-triazol-3-yl)acetyl] pyrrolidine-2-carboxamide]	9 nM	280 nM	> 100000 nM
CC(C)c1ccc([C@@H](NC(=O)[C@@H]2C[C@@H](F)CN2C(=O)Cc2nn(C)c(=O)o2)c2ccccc2)nc1F [Compound 401, (2S,4R)-4-fluoro-N-[(S)-[6-fluoro-5-(propan-2-yl)pyridin-2-yl](phenyl)methyl]-1-[2-(4-methyl-5-oxo-4,5-dihydro-1,3,4-oxadiazol-2-yl)acetyl]pyrrolidine-2-carboxamide]	10 nM	290 nM	> 100000 nM
CC(C)c1ccc([C@@H](NC(=O)[C@@H]2C[C@@H](F)CN2C(=O)Cc2[nH]nnc2C(F)(F)F)c2ccccc2)nc1F [Compound 403, (2S,4R)-4-fluoro-N-[(S)-[6-fluoro-5-(propan-2-yl)pyridin-2-yl](phenyl)methyl]-l-{2-[4-(trifluoromethyl)-1H-1,2,3-triazol-5-yl]acetyl}pyrrolidine-2-carboxamide]	4 nM	140 nM	> 100000 nM

More lines, in order of falling IC50 [1], values ahead:

IC50 [1]	IC50 [2]	IC50 [3]	SMILES
59 nM	850 nM	> 100000 nM	CC(C)c1ccc([C@@H](NC(=O)[C@@H]2C[C@@H](F)CN2C(=O)Cc2noc(=O)n2C)c2ccccc2)nc1F [Compound 402, (2S,4R)-4-fluoro-N-[(S)-[6-fluoro-5-(propan-2-yl)pyridin-2-yl](phenyl)methyl]-1-[2-(4-methyl-5-oxo-4,5-dihydro-1,2,4-oxadiazol-3-yl)acetyl]pyrrolidine-2-carboxamide]
33 nM	700 nM	> 100000 nM	CC(C)c1ccc([C@@H](NC(=O)[C@@H]2C[C@@H](F)CN2C(=O)Cn2cnnc2)c2ccccc2)cc1F [Compound 384, (2S,4R)-4-fluoro-N-[(S)-[3-fluoro-4-(propan-2-yl)phenyl](phenyl)methyl]-1-[2-(4H-1,2,4-triazol-4-yl)acetyl]pyrrolidine-2-carboxamide]
27 nM	410 nM	> 100000 nM	CC(C)c1ccc([C@@H](NC(=O)[C@@H]2C[C@@H](F)CN2C(=O)Cc2nnc(C(F)F)o2)c2ccccc2)cc1F [Compound 383, (2S,4R)-1-{2-[5-(difluoromethyl)-1,3,4-oxadiazol-2-yl]acetyl}-4-fluoro-N-[(S)-[3-fluoro-4-(propan-2-yl)phenyl](phenyl)methyl] pyrrolidine-2-carboxamide]
27 nM	1030 nM	> 100000 nM	CC(C)c1ccc([C@@H](NC(=O)[C@@H]2C[C@@H](F)CN2C(=O)Cn2cnnc2)c2ccccc2)nc1F [Compound 390, (2S,4R)-4-fluoro-N-[(S)-[6-fluoro-5-(propan-2-yl)pyridin-2-yl](phenyl)methyl]-1-[2-(4H-1,2,4-triazol-4-yl)acetyl] pyrrolidine-2-carboxamide]
17 nM	390 nM	> 100000 nM	CC(C)c1ccc([C@@H](NC(=O)[C@@H]2C[C@@H](F)CN2C(=O)Cc2cnn[nH]2)c2ccccc2)nc1F [Compound 385, (2S,4R)-1-(2-(1H-1,2,3-triazol-5-yl)acetyl)-4-fluoro-N—((S)-(6-fluoro-5-isopropylpyridin-2-yl)(phenyl)methyl)pyrrolidine-2-carboxamide]
12 nM	170 nM	> 100000 nM	CC(C)c1ccc([C@@H](NC(=O)[C@@H]2C[C@@H](F)CN2C(=O)Cn2nnnc2C(F)F)c2ccccc2)nc1F [Compound 400, (2S,4R)-1-{2-[5-(difluoromethyl)-1H-1,2,3,4-tetrazol-1-yl]acetyl}-4-fluoro-N-[(S)-[6-fluoro-5-(propan-2-yl)pyridin-2-yl](phenyl)methyl] pyrrolidine-2-carboxamide]
8 nM	150 nM	> 100000 nM	CC(C)c1ccc([C@@H](NC(=O)[C@@H]2C[C@@H](F)CN2C(=O)CNC(=O)N2CCC2)c2ccccc2)nc1F [Compound 399, (2S,4R)-1-{2-[(azetidine-1-carbonyl)amino]acetyl}-4-fluoro-N-[(S)-[6-fluoro-5-(propan-2-yl)pyridin-2-yl](phenyl)methyl] pyrrolidine-2-carboxamide]
4 nM	50 nM	> 90300 nM	CC(C)c1ccc([C@@H](NC(=O)[C@@H]2C[C@@H](F)CN2C(=O)Cn2cnc3ccccc32)c2ccccc2)nc1F [Compound 389, (2S,4R)-1-[2-(1H-1,3-benzodiazol-1-yl)acetyl]-4-fluoro-N-[(S)-[6-fluoro-5-(propan-2-yl)pyridin-2-yl](phenyl)methyl] pyrrolidine-2-carboxamide]
